# Assay results taken from patent US7741346B2, “Angiogenesis inhibitor” (Santen Pharmaceutical Co., Ltd., priority 2001, dated 2010).
row,melting point,SMILES
1,120 to 122.5 °C,Cl.O=C(NCCCc1ccncc1)N(CCC12CC3CC(CC(C3)C1)C2)CCC12CC3CC(CC(C3)C1)C2
2,133.7 to 137 °C,CCCCCN(CCC12CC3CC(CC(C3)C1)C2)C(=O)CNCCc1ccncc1.Cl.Cl
3,120.5 to 131.7 °C,CC(C)CCN(CCC(C)C)C(=O)NCCCc1ccncc1.Cl
4,97 °C,CC(C)(C)OC(=O)NCCN(CCC12CC3CC(CC(C3)C1)C2)C(=O)NCCCc1cc[n+](Cc2ccccc2)cc1.[Br-]
5,64 to 74.5 °C,Cl.O=C1CCN(CCC2CCCCC2)C(=O)N1Cc1ccncc1
6,170 °C,Cl.O=C1CCN(CCCc2ccncc2)C(=O)N1CCC12CC3CC(CC(C3)C1)C2
7,94 to 98 °C,"O=C(NCCCc1ccncc1)N1CCOCC1 [Compound No. 1-6, N-[3-(4-Pyridyl)propyl]-4-morpholinecarboxamide]"
8,104 to 106.5 °C,"CN(C)CCN(CCC12CC3CC(CC(C3)C1)C2)C(=O)NCCCc1ccncc1 [Compound No. 1-15, 1-[2-(1-Adamantyl)ethyl]-1-[2-(dimethylamino)ethyl]-3-[3-(4-pyridyl)propyl]urea]"
9,101.5 to 104.5 °C,"COCCN(CCC12CC3CC(CC(C3)C1)C2)C(=O)NCCCc1ccncc1 [Compound No. 1-18, 1-[2-(1-Adamantyl)ethyl]-1-(2-methoxyethyl)-3-[3-(4-pyridyl)propyl]urea]"
10,142.5 to 144.5 °C,"O=C(NCCCc1ccncc1)N(CCC12CC3CC(CC(C3)C1)C2)Cc1cccs1 [Compound No. 1-27, 1-[2-(1-Adamantyl)ethyl]-3-[3-(4-pyridyl)propyl]-1-(2-thienyl)methylurea]"
11,119.5 to 121.5 °C,"CCCCCCN(CCC12CC3CC(CC(C3)C1)C2)C(=O)NCCCc1ccncc1 [Compound No. 1-29, 1-[2-(1-Adamantyl)ethyl]-1-hexyl-3-[3-(4-pyridyl)propyl]urea]"
12,93 to 96 °C,"CC(C)=CCN(CCC12CC3CC(CC(C3)C1)C2)C(=O)NCCCc1ccncc1 [Compound No. 1-31, 1-[2-(1-Adamantyl)ethyl]-1-(3-methyl-2-butenyl)-3-[3-(4-pyridyl)propyl]urea]"
13,75 to 76 °C,"CCCCCCCCCCN(CCC12CC3CC(CC(C3)C1)C2)C(=O)NCCCc1ccncc1 [Compound No. 1-32, 1-[2-(1-Adamantyl)ethyl]-1-decyl-3-[3-(4-pyridyl)propyl]urea]"
14,108 to 109 °C,"C=C(C)CN(CCC12CC3CC(CC(C3)C1)C2)C(=O)NCCCc1ccncc1 [Compound No. 1-33, 1-[2-(1-Adamantyl)ethyl]-1-(2-methyl-2-propenyl)-3-[3-(4-pyridyl)propyl]urea]"
15,130 to 134.5 °C,"O=C(NCCCc1ccncc1)N(CC=Cc1ccccc1)CCC12CC3CC(CC(C3)C1)C2 [Compound No. 1-34, 1-[2-(1-Adamantyl)ethyl]-1-cinnamyl-3-[3-(4-pyridyl)propyl]urea]"
16,106 to 115 °C,"CCN(CCC12CC3CC(CC(C3)C1)C2)C(=O)NCCCc1ccncc1 [Compound No. 1-41, 1-[2-(1-Adamantyl)ethyl]-1-ethyl-3-[3-(4-pyridyl)propyl]urea]"
17,128 to 130 °C,"O=C(NCCCc1ccncc1)N(CCC12CC3CC(CC(C3)C1)C2)Cc1ccco1 [Compound No. 1-42, 1-[2-(1-Adamantyl)ethyl]-1-furfuryl-3-[3-(4-pyridyl)propyl]urea]"
18,130.5 to 135 °C,"O=C(NCCCc1ccncc1)N(CCC12CC3CC(CC(C3)C1)C2)Cc1ccccc1 [Compound No. 1-43, 1-[2-(1-Adamantyl)ethyl]-1-benzyl-3-[3-(4-pyridyl)propyl]urea]"
19,64.7 to 65.8 °C,"CCCCCN(CCC1CCCCC1)C(=O)NCc1ccncc1 [Compound No. 1-52, 1-(2-Cyclohexylethyl)-1-pentyl-3-(4-pyridyl)methylurea]"
20,107 to 112 °C,"O=C(N(CCCc1ccncc1)Cc1ccccc1)N(CCCc1ccccc1)C1CCCCC1 [Compound No. 1-60, 1-Cyclohexyl(phenyl)methyl-1-(3-phenylpropyl)-3-[3-(4-pyridyl)propyl]urea]"
21,143 to 145.5 °C,"O=C(NCCCc1ccncc1)N(C1CCCCC1)C1CCCCC1 [Compound No. 1-61, 1,1-Dicyclohexyl-3-[3-(4-pyridyl)propyl]urea]"
22,47 to 50 °C,"CCCCCNC(=O)N(CCCc1ccncc1)CCC12CC3CC(CC(C3)C1)C2 [Compound No. 1-66, 1-[2-(1-Adamantyl)ethyl]-3-pentyl-1-[3-(4-pyridyl)propyl]urea]"
23,135.5 to 137.5 °C,"O=C(NCCCc1ccncc1)N(CCC12CC3CC(CC(C3)C1)C2)C1CCCC1 [Compound No. 1-70, 1-[2-(1-Adamantyl)ethyl]-1-cyclopentyl-3-[3-(4-pyridyl)propyl]urea]"
24,87.5 to 92 °C,"CCCCCN(CCC12CC3CC(CC(C3)C1)C2)C(=O)NCc1ccccn1 [Compound No. 1-72, 1-[2-(1-Adamantyl)ethyl]-1-pentyl-3-(2-pyridyl)methylurea]"
25,74.1 to 78.1 °C,"CCCCCN(CCC12CC3CC(CC(C3)C1)C2)C(=O)NCCCCc1ccncc1 [Compound No. 1-87, 1-[2-(1-Adamantyl)ethyl]-1-pentyl-3-[4-(4-pyridyl)butyl]urea]"

# Second part, the compound before the results:
row,SMILES,melting point
1,CCCCCN(CCC12CC3CC(CC(C3)C1)C2)C(=O)NCCc1ccc(O)cc1,96.3 to 99.4 °C
2,CCCN(CCCC12CC3CC(CC(C3)C1)C2)C(=O)NCCCc1ccncc1.O=P(O)(O)O,148 to 149 °C
3,Cl.O=C(NCc1ccncc1)N(CCC1CCCCC1)Cc1cccs1,161.8 to 164.4 °C
4,Cl.Cl.NN(CCC12CC3CC(CC(C3)C1)C2)C(=O)NCCCc1ccncc1,~ 100 °C
5,Cl.O=C1CCN(CCC23CC4CC(CC(C4)C2)C3)C(=O)N1CCCc1ccncc1,177 to 178.5 °C
6,"CCCCCN(CCC12CC3CC(CC(C3)C1)C2)C(=O)NC[C@@H]1C[C@@H]1c1ccncc1 (relative stereo) [Compound No. 15-1, cis-1-[2-(1-adamantyl)ethyl]-1-pentyl-3-[2-(4-pyridyl)cyclopropylmethyl]urea]",128 to 130 °C
7,"O=C(NCCCc1ccncc1)N1CCc2ccccc2C1 [Compound No. 1-5, N-[3-(4-Pyridyl)propyl]-1,2,3,4-tetrahydroisoquinoline-2-carboxamide]",76 to 79 °C
8,"CCCN(CCC12CC3CC(CC(C3)C1)C2)C(=O)NCCCc1ccncc1 [Compound No. 1-16, 1-[2-(1-Adamantyl)ethyl]-1-propyl-3-[3-(4-pyridyl)propyl]urea]",99 to 103 °C
9,"O=C(NCCCc1ccncc1)N(CCC12CC3CC(CC(C3)C1)C2)CC1CCCC1 [Compound No. 1-21, 1-[2-(1-Adamantyl)ethyl]-1-cyclopentylmethyl-3-[3-(4-pyridyl)propyl]urea]",155 to 158 °C
10,"O=C(NCCCc1ccncc1)N(CCC12CC3CC(CC(C3)C1)C2)CC1CC1 [Compound No. 1-22, 1-[2-(1-Adamantyl)ethyl]-1-cyclopropylmethyl-3-[3-(4-pyridyl)propyl]urea]",123 to 125 °C
11,"C=CCN(CCC12CC3CC(CC(C3)C1)C2)C(=O)NCCCc1ccncc1 [Compound No. 1-23, 1-[2-(1-Adamantyl)ethyl]-1-allyl-3-[3-(4-pyridyl)propyl]urea]",99 to 102 °C
12,"CN(CCC12CC3CC(CC(C3)C1)C2)C(=O)NCCCc1ccncc1 [Compound No. 1-40, 1-[2-(1-Adamantyl)ethyl]-1-methyl-3-[3-(4-pyridyl)propyl)urea]",99 to 109 °C
13,"O=C(NCCCc1ccncc1)N(CCC12CC3CC(CC(C3)C1)C2)CCC12CC3CC(CC(C3)C1)C2 [Compound No. 1-56, 1,1-Bis[2-(1-adamantyl)ethyl]-3-[3-(4-pyridyl)propyl]urea]",80 °C
14,"CCCCN(CCC12CC3CC(CC(C3)C1)C2)C(=O)NCCCc1ccncc1 [Compound No. 1-57, 1-[2-(1-Adamantyl)ethyl]-1-butyl-3-[3-(4-pyridyl)propyl]urea]",109.5 to 118 °C
15,"CC(C)N(CCC12CC3CC(CC(C3)C1)C2)C(=O)NCCCc1ccncc1 [Compound No. 1-68, 1-[2-(1-Adamantyl)ethyl]-1-isopropyl-3-[3-(4-pyridyl)propyl]urea]",132 to 134 °C
16,"CC(C)(C)OC(=O)CCN(CCC12CC3CC(CC(C3)C1)C2)C(=O)NCCCc1ccncc1 [Compound No. 1-69, 1-[2-(1-Adamantyl)ethyl]-1-[2-(t-butoxycarbonyl)ethyl]-3-[3-(4-pyridyl)propyl]urea]",124.5 to 127 °C
17,"CCCCCN(CCC12CC3CC(CC(C3)C1)C2)C(=O)NCc1cccnc1 [Compound No. 1-73, 1-[2-(1-Adamantyl)ethyl]-1-pentyl-3-(3-pyridyl)methylurea]",88.5 to 101.5 °C
18,"CCCCCN(CCC12CC3CC(CC(C3)C1)C2)C(=O)NCc1ccncc1 [Compound No. 1-74, 1-[2-(1-Adamantyl)ethyl]-1-pentyl-3-(4-pyridyl)methylurea]",96.5 to 108 °C
19,"CCCCCN(CCC12CC3CC(CC(C3)C1)C2)C(=O)NCCc1ccccn1 [Compound No. 1-75, 1-[2-(1-Adamantyl)ethyl]-1-pentyl-3-[2-(2-pyridyl)ethyl]urea]",80 to 100 °C
20,"CCCCCN(CCC12CC3CC(CC(C3)C1)C2)C(=O)NCCc1cccnc1 [Compound No. 1-76, 1-[2-(1-Adamantyl)ethyl]-1-pentyl-3-[2-(3-pyridyl)ethyl]urea]",112.5 to 114.5 °C
21,"CCCCCN(CCC12CC3CC(CC(C3)C1)C2)C(=O)NCCc1ccncc1 [Compound No. 1-80, 1-[2-(1-Adamantyl)ethyl]-1-pentyl-3-[2-(4-pyridyl)ethyl]urea]",107 to 118 °C
22,"CCCCCN(CCC12CC3CC(CC(C3)C1)C2)C(=O)NCCCc1ccccn1 [Compound No. 1-83, 1-[2-(1-Adamantyl)ethyl]-1-pentyl-3-[3-(2-pyridyl)propyl]urea]",84.4 to 85.7 °C
23,"CCCCCN(CCC12CC3CC(CC(C3)C1)C2)C(=O)NCCCc1cccnc1 [Compound No. 1-84, 1-[2-(1-Adamantyl)ethyl]-1-pentyl-3-[3-(3-pyridyl)propyl]urea]",99.9 to 105.2 °C
